In patent US7759399B2, “Pharmaceutical compositions” (priority 2002, dated 2010):
pIC50: −log10 of the molar value.

Tests used:
HSF = HSF luciferase reporter assay, HeLa cell clone 13B (human hsp70 promoter); type: cell-based; conditions: 8 h, HeLa clone 13B, 8 h treatment, serum-free medium, read-out: HSF, AC200 (concentration at which the compound doubled the HSF activity)
Description: (§1) Method: HeLa cell clone 13B, stably transfected with a luciferase reporter plasmid controlled by the human hsp70 promoter, and HeLa κB-transformed cells, stably transfected with a luciferase reporter plasmid controlled by a synthetic NF-κB-STM construct, were maintained in DMEM medium supplemented with 10% FBS, L-glutamine (2 mM) and G418 (250 μg/ml) at 37° C. in a 5% CO2 humidified atmosphere.
(§2) Cells were seeded at a density of 4×10^4 cells/well in 96-well plates. After 18-20 h, the medium was removed and cells were treated for 8 h with the test compounds (100 μl) at the appropriate dilutions in serum-free medium. For the NF-κB-dependent reporter gene assay, cells were stimulated with TPA (25 ng/ml) 2 h after exposure to the compounds.
(§3) After incubation, the medium was removed and cells were lysed in 10 μl of lysis buffer. The luciferase activity was determined by adding 100 μl of substrate and measuring the release of light using a Victor 1420 microplate reader (Wallac, Finland).
(§4) The AC200/μM for HSF is the concentration at which the tested compound doubled the HSF activity in this assay. The IC50/μM for NF-κB is the concentration at which the tested compound halved the NF-κB activity in this assay.

in vitro = type: cell-based; conditions: 37RC cells, 24 h treatment; read-out: LC50 (50% lethal dose/concentration), Neutral Red
Description: Cell viability was determined using the Neutral Red assay. 37RC cells were seeded at density of 6×10^4 cells/well in 24-well plates and incubated for 24 h. Confluent 37RC monolayers were treated with the test compounds at different dilutions for 24 h at 37° C. After incubation, the medium was removed and the cells were incubated with RPMI medium containing 40 μg/ml Neutral Red dye (500 μl/well). After 2 h at 37° C., the monolayers were washed with phosphate-buffered saline (PBS) and then with a solution containing 1% CaCl2 and 0.5% formaldehyde. After washing, a solution containing 1% acetic acid/50% ethanol was added to the monolayers (250 μl/well). After 10 min at room temperature, the absorbance was determined with a microplate reader (Victor 1420, Wallac) at 540 nm.

uninfected 37RC cells = test: Toxicity to uninfected cells, determined visually by microscopy (TD100)
NF-κB = test: NF-κB-dependent luciferase reporter gene assay, HeLa κB-transformed cells, TPA stimulated; type: cell-based; conditions: Homo sapiens, HeLa, 8 h treatment, TPA 25 ng/ml 2 h after exposure, read-out: NF-κB, IC50 (concentration at which the compound halved the NF-κB activity)
Description: as §1, §2, §3
The fragment Kpn I-BamH I from the pGL3 basic vector containing the luciferase gene (PROMEGA) was inserted in the pcDNA3 vector (INVITROGEN) digested with Bgl II-KpnI. (This digestion removes the CMV-promoter from pcDNA3.) The resulting new vector was digested with Kpn I-Hind III and a promoter containing a ‘5xNF-κB binding sites—TATA box’ sequence was inserted upstream of the luciferase gene. This vector has been named STM.
To obtain stable HeLa cell lines expressing the luciferase gene under the control of NF-κB, HeLa cells were transfected (using lipofectamine plus GIBCO) with the STM-Pvu I linearized vector, and selected for 20 days with G418 (800 μg/ml). After selection, the resistant HeLa cell pool was controlled (in quadruplicate samples) for luciferase activity after stimulation with TNFα, IL-1 and TPA.
as §4

Sendai virus = Sendai virus replication in 37RC cells (virus yield by HAU titration); type: cell-based; conditions: Respirovirus muris, 5 HAU/10^5 cells, virus yield at 24 hours after infection, read-out: ID50 (50% inhibitory dose/concentration), Sendai virus yield
[1] = Alamar Blue cytotoxicity assay; type: cell-based; conditions: human
Description: HeLa cells were plated in 96-well microtiter plates in 100 μl culture medium (4×10^4/well). After 20 hours, the cells were exposed to the test compounds at different dilutions and incubated for the next 8 h at 37° C. in a 5% CO2 humidified atmosphere. After 6 h incubation, the Alamar Blue was added in an amount equal to 10% of the culture volume (10 μl). Two hours after the addition of the Alamar Blue, the fluorescence was measured using a Victor 1420 microplate reader.
The LC50/μM is the concentration at which the tested compound killed half the cells in this assay.

Compound	EC (2-fold) (HSF)	CC50 at 24 h (in vitro)	TD100 (dose or concentration at which the compound was 100% toxic to uninfected cells) (uninfected 37RC cells)	pIC50 (NF-κB)	pIC50 (Sendai virus)	CC50 at 8 h [1]
CC(=O)NCCS[C@H]1CC(=O)C[C@@H]1O[Si](C)(C)C(C)(C)C [CTM-83]	27 µM	27 µM	50 µM	4.33	5.52	> 800 µM
COC(=O)c1ccccc1S[C@H]1CC(=O)C[C@@H]1O[Si](C)(C)C(C)(C)C [CTM-82]	35 µM	16 µM	50 µM	4.27	6.00	> 800 µM
COC(=O)CS[C@H]1CC(=O)C[C@@H]1O[Si](C)(C)C(C)(C)C [CTM-87]	48 µM	38 µM	50 µM	4.28	5.40	260 µM
CC(C)(C)[Si](C)(C)O[C@H]1CC(=O)C[C@@H]1Sc1ncccn1 [CTM-84]	28 µM	6.3 µM	10 µM	4.55	6.00	556 µM
CCOC(=O)[C@H](CS[C@H]1CC(=O)C[C@@H]1O[Si](C)(C)C(C)(C)C)NC(C)=O [CTM-131]	70 µM	125 µM	50 µM	< 4.00	5.00	> 800 µM
COC(=O)CCS[C@H]1CC(=O)C[C@@H]1O[Si](C)(C)C(C)(C)C [CTM-88]	60 µM	45 µM	50 µM	4.19	5.00	477 µM
CC(C)(C)OC(=O)N[C@@H](CS[C@H]1CC(=O)C[C@@H]1O[Si](C)(C)C(C)(C)C)C(=O)O [CTM-145]		14 µM	50 µM		6.10	> 800 µM
CC(C)(C)[Si](C)(C)O[C@H]1CC(=O)C[C@@H]1SCCS(=O)(=O)O [CTM-165]	26 µM	21 µM	50 µM	4.30	6.00	> 800 µM
COC(=O)[C@H](CS[C@H]1CC(=O)CC[C@@H]1O[Si](C)(C)C(C)(C)C)NC(=O)OC(C)(C)C [CTM-68, (R)-2-tert-Butoxycarbonylamino-3-[(1S,2S)-2-(tert-butyl-dimethyl-silanyloxy)-5-oxo-cyclohexylsulfanyl]-propionic acid methyl ester]	98 µM	9.8 µM	9.8 µM			
CC(C)(C)[Si](C)(C)O[C@H]1CC(=O)C[C@@H]1Sc1ccccn1 [CTM-86]	20 µM	7 µM	10 µM	4.44	5.70	96 µM
CCOC(=O)[C@H](CS[C@H]1CC(=O)C[C@@H]1O[Si](C)(C)C(C)(C)C)NC(=O)OC(C)(C)C [CTM-184]	24 µM	25 µM	50 µM	4.21	6.00	
CC(C)(C)OC(=O)N[C@@H](CS[C@H]1CC(=O)C(C)(C)C1OC(=O)C(C)(C)C)C(=O)O (stereo in doubt) [CTM-218, (2R)-2-tert-butoxycarbonylamino-3-[(1S,2R)-2-(2,2-dimethylpropionyloxy)-3,3-dimethyl-4-oxocyclopentylsulfanyl]-propionic acid]	15 µM			4.66		
CC(C)(C)OC(=O)N[C@@H](CS[C@H]1CC(=O)C[C@@H]1O[Si](C)(C)C(C)(C)C)C(=O)OC(C)(C)C [CTM-183]		28 µM	50 µM		5.80	
CC(C)(C)OC(=O)N[C@@H](CS[C@@H]1CC(=O)C(C)(C)C1OC(=O)C(C)(C)C)C(=O)O (stereo in doubt) [CTM-217, (2R)-2-tert-butoxycarbonylamino-3-[(1R,2S)-2-(2,2-dimethylpropionyloxy)-3,3-dimethyl-4-oxocyclopentylsulfanyl]-propionic acid]	10 µM			4.85		
C[C@@H](CS[C@H]1CC(=O)C[C@@H]1O[Si](C)(C)C(C)(C)C)C(=O)N1CCCC1C(=O)O (some centres unmarked) [CTM-182]	60 µM	54 µM	100 µM	< 4.00	5.30	
Cc1cc(C)n(CCS[C@H]2CC(=O)C[C@@H]2O[Si](C)(C)C(C)(C)C)n1 [CTM-109]	29 µM	33 µM	50 µM	< 4.00	5.40	267 µM
CC(S[C@H]1CC(=O)C[C@@H]1O[Si](C)(C)C(C)(C)C)C(=O)NCC(=O)O (some centres unmarked) [CTM-110]	27 µM	18 µM	50 µM	< 4.00	6.00	> 800 µM
COC(=O)C(CSC1CC(=O)CC(O[Si](C)(C)C(C)(C)C)C1)NC(=O)OC(C)(C)C (centres unmarked) [CTM-78, 2-tert-Butoxycarbonylamino-3-[3-(tert-butyl-dimethyl-silanyloxy)-5-oxo-cyclohexylsulfanyl]-propionic acid methyl ester]	45 µM	18.6 µM	18.6 µM			
CC(=O)N[C@@H](CS[C@H]1CC(=O)C[C@@H]1O[Si](C)(C)C(C)(C)C)C(=O)O [CTM-115]		228 µM	>500 µM		4.30	> 800 µM
CC(C)(C)[Si](C)(C)O[C@H]1CC(=O)C[C@@H]1Sc1ccncc1 [CTM-132]	13 µM	2.6 µM	10 µM	4.48	6.70	220 µM
CC(C)(C)[Si](C)(C)OC1C=CC(=O)C1 (centres unmarked) [CTC-8, 4-tert-butyldimethylsilyloxy-cyclopent-2-en-1-one, reference compound]			100 µM		6.30	
Cc1ccc(S[C@H]2CC(=O)C[C@@H]2O[Si](C)(C)C(C)(C)C)cc1 [CTM-80]	60 µM	16 µM	50 µM	< 4.00	6.00	> 800 µM
CC(C)(C)[Si](C)(C)O[C@H]1CC(=O)C[C@@H]1Sc1ccc(F)cc1 [CTM-108]	13 µM	29 µM	50 µM	< 4.00	5.40	> 800 µM
CC(C)(C)[Si](C)(C)O[C@H]1CC(=O)C[C@@H]1Sc1ccc([N+](=O)[O-])cc1 [CTM-107]	21 µM		10 µM	4.33	6.52	169 µM
